In brackets after ≈: the same amount, converted by molar mass.
Experiments:
[1] = species: Homo sapiens; assay: Ratio of EC50 for human CB1 receptor to EC50 for human CB2 receptor
[2] = target: T1, Cannabinoid receptor 1 (Homo sapiens, UniProt P21554); assay: Inhibition of human CB1 receptor expressed in CHO cells assessed as inhibition of forskolin-induced cAMP accumulation after 30 mins; format: functional, cell-based
[3] = Solubility of the compound at pH 7.4 after 16 to 18 hrs by UV spectrophotometry; format: physicochemical; settings: buffer
[4] = target: Cannabinoid receptor 2 (Homo sapiens, UniProt P34972); assay: Inhibition of human CB2 receptor expressed in CHO cells assessed as inhibition of forskolin-induced cAMP accumulation after 30 mins; format: functional, cell-based
Cannabinoid receptor 2, sequence (P34972 whole entry): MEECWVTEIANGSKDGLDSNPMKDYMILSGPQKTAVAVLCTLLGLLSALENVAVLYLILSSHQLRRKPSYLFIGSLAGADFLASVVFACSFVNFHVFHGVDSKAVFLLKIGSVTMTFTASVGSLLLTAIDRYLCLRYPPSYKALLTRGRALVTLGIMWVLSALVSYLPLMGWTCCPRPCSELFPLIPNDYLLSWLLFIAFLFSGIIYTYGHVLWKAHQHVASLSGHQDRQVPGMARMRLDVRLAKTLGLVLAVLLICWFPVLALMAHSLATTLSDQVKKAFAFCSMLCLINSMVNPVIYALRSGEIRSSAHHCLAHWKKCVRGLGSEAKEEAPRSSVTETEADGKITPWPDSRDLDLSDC

[5] = Half life in human liver microsomes at 1 uM by LC/MS/MS analysis; format: ADME
[6] = target: T1, Cannabinoid receptor 1; assay: Partial agonist activity at human CB1 receptor expressed in CHO cells assessed as cAMP accumulation after 30 mins; format: functional, cell-based

T1 sequence (P21554 whole entry): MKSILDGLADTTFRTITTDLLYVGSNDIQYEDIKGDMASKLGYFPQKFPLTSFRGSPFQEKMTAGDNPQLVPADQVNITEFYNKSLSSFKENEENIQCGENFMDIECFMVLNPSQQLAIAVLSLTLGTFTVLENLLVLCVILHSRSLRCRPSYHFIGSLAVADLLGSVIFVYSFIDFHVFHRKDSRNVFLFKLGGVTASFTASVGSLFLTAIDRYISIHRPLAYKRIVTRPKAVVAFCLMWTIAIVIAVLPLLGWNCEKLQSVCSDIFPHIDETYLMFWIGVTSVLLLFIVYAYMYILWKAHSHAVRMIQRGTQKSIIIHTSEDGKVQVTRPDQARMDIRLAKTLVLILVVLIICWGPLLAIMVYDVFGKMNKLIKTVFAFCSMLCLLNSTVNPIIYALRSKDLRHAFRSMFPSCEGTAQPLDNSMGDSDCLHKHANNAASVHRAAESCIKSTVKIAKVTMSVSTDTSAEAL

SMILES	Ratio EC50 [1]	EC50 [2]	solubility [3]	EC50 [4]	half-life at 1 µM [5]	Activity [6]
CC(C)(C)c1cc(NC(=O)[C@@H]2CCCN2c2ncc(C(F)(F)F)cc2Cl)no1	88	7 nM				
O=C(Nc1cc(C(F)(F)F)on1)N1CCCN(C(=O)c2ccc(C(F)(F)F)cn2)CC1	50	253 nM	0.4 µg/mL (≈ 0.886 µM)	5 nM	9 min	
CC(C)(C)c1cc(NC(=O)N2CC3CC2CN3C(=O)c2ccc(C(F)(F)F)cc2)no1 (stereo not given)				> 20 nM		
CC(C)(C)c1cc(NC(=O)[C@]2(C)CCCN2c2ccc(Cl)cc2)no1	257	54 nM				
O=C(Nc1cc(C(F)(F)F)on1)N1CCCN(C(=O)c2ccc(C(F)(F)F)cc2)CC1	714	1000 nM		1.4 nM		
CCCCc1ccc(NC(=O)N2CCN(C(=O)CCC3CCCC3)CC2)cc1				> 20 nM		
CC(C)(C)c1cc(NC(=O)[C@H]2CCCN2c2ccc(C(F)(F)F)cc2)no1						< 70%
CC(C)(C)c1cc(NC(=O)[C@]2(C)CCCN2c2ccc(C(F)(F)F)cn2)no1	12	0.5 nM		0.04 nM		
CC(C)(C)c1cc(NC(=O)C(C)(C)S(=O)(=O)c2ccc(C(F)(F)F)cn2)no1	140	420 nM	12 µg/mL (≈ 28.6 µM)	3 nM	< 5 min	
CC(C)(C)c1cc(NC(=O)[C@]2(C)CCCN2c2ccc(C(F)(F)F)cc2)no1	52	15 nM		0.29 nM		
CC(C)(C)c1cc(NC(=O)C(C)(C)S(=O)(=O)c2ccc(C(F)(F)F)cc2)no1	545	420 nM		0.77 nM		
CC(C)(C)c1cc(NC(=O)[C@H]2CCCN2c2ccc(Cl)cc2)no1						< 70%

— ChEMBL document CHEMBL3399936, “Selective CB2 receptor agonists. Part 1: the identification of novel ligands through computer-aided drug design (CADD) approaches” (Bioorg Med Chem Lett, 2015)
